Measurements published in patent publication US20110195924A1, “Methods of Inhibiting the Interaction Between S100P and the Receptor for Advanced Glycation End-Products” (priority 2008, published 2011).
Values joined by “and” are separate entries in the source; they are usually repeats but may differ in a detail not shown here. Identical values can stand only once. “Also recorded” adds a separate entry of the source.

Experiments:
BxPC-3 tumors = assay: BxPC-3 orthotopic tumor growth and metastasis in scid mice; type: in vivo; settings: BxPC-3 model; for lung metastasis, mean: control 5.5×10^8; for tumor burden, difference versus control / tumor burden, mean: end of six weeks; for tumor burden, mean: gemcitabine 125 mg/kg bi-weekly i.p., cromolyn 5 mg/kg daily i.p., control 1.6×10^9
Experimental: FIGS. 4A-4F show the effect of cromolyn on BxPC-3 tumor growth and metastasis in vivo. BxPC-3 cells stably expressing the firefly luciferase gene were injected orthotopically into 4 week old male CB 17 scid mice. […] Mice were divided into four groups of five mice each with an equivalent mean tumor size between groups. […] One group was treated with water (control), one group received gemcitabine bi-weekly (125 mg kg body weight bi-weekly by intraperitoneal injection), one group was administered cromolyn daily (5 mg per kg body weight daily by intraperitoneal injection), and the final group was given the combination of daily cromolyn and bi-weekly gemcitabine. All groups were treated for six weeks. Bioluminescent imaging was done weekly to assess tumor growth. […] Means and 95% confidence intervals are shown. (n=20). Two-tailed two-sample (unpaired) Student's t-tests were used to determine P values. The anti-tumorigenic capability of the drug cromolyn was assessed in 4-week-old male CB 17 scid mice (n=20) carrying orthopic tumors of BxPC-3, MPanc96, and Panc-1 cells stably expressing a Lenti-luc reporter. All mouse experiments were reviewed and approved by the Institutional Animal Care and Use Committee of UT MD Anderson Cancer Center. All mice were maintained in a sterile environment. Cages, bedding, food, and water were all autoclaved. All mice were maintained on a daily 12-hour light/12-hour dark cycle, according to the institutional animal welfare guidelines. BxPC-3, MPanc96, and Pane-1 cells carrying the Lenti-luc reporter gene were grown to 80% confluence, harvested by incubation with trypsin-EDTA, washed twice in PBS, and resuspended to a final concentration of 4.0×10^6 cells/mL. Each mouse (n=20 mice per cell line) was injected (into the pancreas) with cell suspensions (50 μL). Bioluminescent imaging to determine tumor volume was performed 1 week after injection because the tumors became established within this amount of time. This initial tumor volume was used to divide the mice into four groups of five mice each, such that the mean tumor size was equal between groups (FIGS. 4A, 5A, and 6A). To allow enough time to observe differences among treatment groups, the mice were followed for the next 5 weeks. One group of mice was then treated biweekly with a sub-maximal concentration of gemcitabine (125 mg per kg body weight by i.p. injection). A second group was treated with a daily injection of cromolyn (5 mg per kg body weight by i.p. injection). A third group was treated with both bi-weekly gemcitabine and daily cromolyn. The control group was treated daily with vehicle. Treatments were continued for 5 weeks, and the effects on the tumor burden and metastasis were analyzed by weekly bioluminescence imaging (FIGS. 4B, 5B, and 6B). At the end of the experiment the mice were anesthetized with 1.5% isofluorane/air mixture and killed by cervical dislocation. Bioluminescence imaging was conducted using a cryogenically cooled IVIS 100 imaging system coupled to a data acquisition computer running Living Image software (Xenogen Corp., Alameda, Calif.). Before imaging, mice were placed in an acrylic chamber, anesthetized with 1.5% isofluorane/air mixture, and injected i.p. with 15 mg/mL of luciferin potassium salt in PBS at a dose of 150 mg per kg body weight. A digital grey scale image of each mouse was acquired, followed by acquisition and overlay of a pseudocolor image representing the spatial distribution of detected photons emerging from active luciferase within the mouse. Tumor volume was quantified as the sum of all detected photons within the region of the tumor per second. At the end of experiment, the mice were killed, and tumors were surgically removed and weighed. After the primary tumors were removed, cancer cell dissemination and metastasis was visualized using IVIS imaging, and metastatic colonies were counted. Subsequently, tissues were fixed with formaldehyde, and histology was used to verify the accuracy of the bioluminescence data. […]

BxPC-3 cells = assay: BxPC-3 apoptosis by flow cytometry (PI staining); type: cell-based; settings: 48 hours
Experimental: BxPC-3 cells were treated with cromolyn (10 μM) with (+) or without (−) gemcitabine (10 μM), and apoptosis was analyzed after 48 hours by flow cytometry. *, P<0.001 versus control, #, P=0.001 versus gemcitabine. Means and 95% confidence intervals of three independent experiments performed in triplicate are shown. Two-tailed two-sample (unpaired) Student's t-tests were used to determine P values. Standard propidium iodide (PI) staining by the hypotonic lysis method was used for apoptosis studies. Apoptosis was induced in 1.0×10^6 BxPC-3 cells by treatment with gemcitabine (10 μM), with or without cromolyn. After 48 hours the cells were detached from culture dishes by incubation in 0.05% trypsin-EDTA, washed once with cold PBS, and then incubated for 30 minutes in 500 μL of hypotonic solution (0.1% sodium citrate, 0.1% Triton X-100, 100 μg/mL RNAse, and 50 μg/mL PI), and analyzed by flow cytometry (EPICS XL, Beckman Coulter Inc, Fullerton, Calif.). Cells undergoing apoptosis that had lost part of their DNA were identified as the population of cells with sub-G1 DNA content. These assays were performed three times.

SKOV3 ovarian cells = assay: SKOV3 ovarian cell proliferation; type: cell-based; settings: different concentrations; 24, 48, 72 hours
Experimental: SKOV3 ovarian cells were cultured for up to three days in the presence of different concentrations of cromolyn, and cell proliferation was analyzed at 24, 48, and 72 hours. *, P<0.05.

S100P binding with RAGE = target: T1, S100P binding with RAGE (Homo sapiens, UniProt P25815); assay: ELISA of S100P binding to RAGE (sRAGE coated plate)
T1 construct: full-length human S100P cDNA (NM_005980) was cloned into the pTrcHis2 vector; His; made in house; host or cells: bacteria (S100P)
T1 sequence (P25815 1-95): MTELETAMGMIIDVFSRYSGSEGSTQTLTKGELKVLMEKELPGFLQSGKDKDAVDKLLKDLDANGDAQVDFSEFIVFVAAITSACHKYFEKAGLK
Experimental: After removing un-bound S100P by washing with detergent, the bound S100P and RAGE complex was quantified by adding HRP labeled antibody against S100P. *, P=0.04 C5 1 μM versus cromolyn 5 μM. Two-tailed two-sample (unpaired) Student's t-tests were used to determine P values.
The plate was washed and the amount of bound S100P was quantitated using anti-S100P antibody.
The binding of S100P to RAGE was determined using an ELISA assay. sRAGE was attached to the dish and recombinant S100P (50 ng) was added with or without the indicated concentrations of cromolyn analogs. The plate was washed and the amount of bound S100P was quantitated using anti-S100P antibody.

S100B with RAGE = target: T2, S100B with RAGE (Homo sapiens, UniProt P04271); assay: ELISA of S100B binding to RAGE (sRAGE coated plate)
T2 sequence (P04271 1-92): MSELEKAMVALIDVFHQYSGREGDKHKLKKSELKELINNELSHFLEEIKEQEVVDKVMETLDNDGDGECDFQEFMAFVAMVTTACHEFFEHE
Description: After removing un-bound S100B by washing with detergent, bound S100B and RAGE complex was quantified by adding HRP labeled antibody against S100B.

## Nc1ccn([C@@H]2O[C@H](CO)[C@@H](O)C2(F)F)c(=O)n1 [gemcitabine]
BxPC-3 tumors
  body weight, difference versus control: 3.9 g
  lung metastasis, mean: 3.9×10^8 photons/sec
  tumor burden, difference versus control: 6.8×10^8 photons/sec
  tumor burden, mean: 9.2×10^8 photons/sec
BxPC-3 tumors; control 31.1
  body weight at the end of the experiment, mean: 27.2 g
BxPC-3 tumors; treatment alone
  metastasis in lung or liver compared with control mice: did not reduce
BxPC-3 cells; gemcitabine 10 μM
  apoptotic cells, difference versus control: 27.3%
BxPC-3 cells; gemcitabine 10 μM, control 3.7%
  apoptotic cells, mean: 31.0% and 30.8%

## O=C(O)c1cc(=O)c2c(OCC(O)COc3cccc4oc(C(=O)O)cc(=O)c34)cccc2o1 [cromolyn, disodium 1,3-bis[(2′-carboxylatochromon-5′-yl)oxy]-2-hydroxypropane]
SKOV3 ovarian cells
  growth of SKOV3 cells: reduced the growth
BxPC-3 tumors
  liver metastasis (in words): but not liver metastasis
  lung metastasis, difference versus control: 3.9×10^8 photons/sec
  lung metastasis, mean: 1.6×10^8 photons/sec
  tumor burden, difference versus control: 1.2×10^9 photons/sec
  tumor burden, mean: 4.4×10^8 photons/sec
BxPC-3 tumors; up to 6 weeks
  effect on body weight (in words): no effect
BxPC-3 cells; cromolyn 10 μM
  cell apoptosis, cromolyn alone: no statistically significant effect
S100P binding with RAGE
  blocking of the interaction / binding of S100P with RAGE: blocked; also recorded: able to block
S100P binding with RAGE; FIG. 7
  concentration achieving the same level of S100P inhibition: 5 µM
S100B with RAGE
  interaction of S100B with RAGE: inhibit
